7 molecules from PubChem BioAssay (NCI) can be followed below.

Holding throughout (test): NCI-60 cell line screen, 48 h
Assay [1] deals with A498 renal.
The test system of assay [2] is DU-145 prostate.
Assay [3] has as its system HCT-116 colon.
The subject of assay [4] is MOLT-4 leukemia.
In assay [5] the test system is NCI-H522 lung.
Assay [6] concerns SN12C renal.
In assay [7] the test system is K-562 leukemia.
Assay [8] concerns MALME-3M melanoma.
Assay [9] relates to NCI-H460 lung.
For assay [10], the system named is RXF 393 renal.

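Protocol summary: plate cells (96-well), add compound at 5 concentrations, incubate 48 h, interpolate endpoints linearly. GI50: concentration for 50% inhibition of growth. TGI denotes the concentration required for complete inhibition of growth.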

Turning to `CCN(CC)CCNc1ccc([N+](=O)[O-])c2sc3cc(Cl)ccc3c(=O)c12`, the GI50 in assay [1] is 5.31 µM; in assay [2], 7.68 µM; in assay [3] it was 3.24 µM; in assay [4], 2.34 µM; in assay [5], 9.01 µM; in [6], 2.05 µM. The TGI in assay [1] was 25.6 µM; in [2], 25.1 µM; in [3] it was over 100 µM; in [4], over 100 µM; in [5] it was over 100 µM; in assay [6], 6.58 µM.
With `COc1cc2c(cc1OCCCOc1ccc(-c3cc4ccccc4c4ccccc34)cc1)N=C[C@@H]1CCCN1C2=O`, the GI50 was 0.894 µM in assay [1]; 0.385 µM in assay [2]; 1.4 µM in [8]; 0.186 µM in assay [4]; 1.04 µM in [9]; 0.24 µM in assay [10]. Also, the GI50 in assay [6] was 0.518 µM. The TGI in assay [1] was 2.16 µM; in assay [2], 1.42 µM; in [7], over 100 µM; in assay [8], 2.74 µM; in [4], 0.432 µM; in assay [9], 2.21 µM. Moreover, the TGI is 0.624 µM in assay [10] and 1.84 µM in assay [6].
Take `Cc1cc(Nc2ccc(Cl)cc2)nc(NCCCNc2ccnc3cc(Cl)ccc23)n1`: in assay [2], the GI50 is 1.84 µM and the TGI worked out at 3.35 µM. Besides, in assay [10], the GI50 is 1.52 µM and the TGI was 3.08 µM.
As for `COC(=O)C(NC(=O)c1ccccc1)C(c1c(O)cc(O)cc1O)P(=O)(OC)OC` (stereo not drawn), the TGI in assay [1], in assay [3], in [7], in [4], in assay [9] and in [5] was over 100 µM each time. In addition, in [6], the TGI is over 100 µM.
On to `CCOC(=O)c1csc(NC(=O)C(C)N2CCOCC2)n1` (stereo not drawn), for which the TGI in assay [1], in assay [2], in [7], in assay [8], in assay [4] and in assay [9] was over 100 µM each time. For the same molecule, in assay [10], the TGI is over 100 µM.
Turning to `NC(Cc1ccccc1CP(=O)(O)O)C(=O)O` (stereo not drawn), the TGI in assay [2], in assay [3], in assay [7], in [4], in assay [9] and in assay [5] was over 100 µM throughout. Also, the TGI in assay [10] and in [6] was over 100 µM each time.
Consider `c1cncc([O][Ge]([O]c2cccnc2)([O]c2cccnc2)[O]c2cccnc2)c1`, for which the GI50 in [3], in assay [8], in [9], in [10] and in assay [6] was over 100 µM in each case. For the same molecule, the TGI in assay [3], in assay [8], in [9], in [10] and in assay [6] was over 100 µM in each case.
